Values joined by “and” are separate entries in the source; they are usually repeats but may differ in a detail not shown here. Equal entries are not always repeated. Where two headings read alike, the source gives them in different places.
What was measured:
[1] = parameters: method as in Wittlin et al., 2013; conditions: ref Wittlin et al., 2013; cited from earlier work
[2] = system: multidrug resistant Pf K1 strain; parameters: method as in Wittlin et al., 2013; conditions: tritiated hypoxanthine assay; ref Wittlin et al., 2013; read-out: Activity against multidrug resistant Pf K1 strain; cited from earlier work
[3] = system: Plasmodium falciparum NF54; assay: Parasite lactate dehydrogenase (pLDH) assay over 72 h, CQ-sensitive strain; format: cell-based
Method: (§1) The assay was performed in quadruplicate. The data were analyzed by nonlinear regression analysis using the GraphPad PRISM version 5.00 program to determine the IC50 of each compound.

[4] = system: Plasmodium falciparum DD2; assay: Parasite lactate dehydrogenase (pLDH) assay over 72 h, CQ-resistant strain; format: cell-based; conditions: for IC50: Plasmodium falciparum, read-out: Plasmodium falciparum IC50 DD2
Method: as §1

[5] = Kinetic solubility in PBS; format: physicochemical; conditions: phosphate buffer saline (PBS), aqueous buffer, kinetic from dmso stock
Method: . […] The aqueous mobile phase was water with 0.1% formic acid and the organic mobile phase was acetonitrile with 0.1% formic acid. The gradient method has a flow rate of 0.8 mL/min, with a total run time of 2.5 min starting at 5% organic and increasing to 95% at 1.4 min, holding for 40 s before returning to 5% to re-equilibrate the column. • ii. Lipophilicity. Stock solutions (10 mM) of compounds were diluted to 100 μM in 96-well deep-well plate containing 300 µL of 1-octanol and 300 µL of phosphate buffer at pH 7.4. The plate was agitated on an orbital shaker at 750 rpm for 2 h. The organic and buffer layers of each well were transferred separately to a new analysis plate. The samples were analysed with the HPLC diode array detection as described for kinetic solubility. Samples from both layers were analysed to determine LogD7.4 values. • iii. Passive permeability. A parallel artificial membrane permeation assay (PAMPA) was used to assess the passive permeability of compounds with a 96-well MultiScreen filter plate ([…] pore size, Millipore). The filter plate was precoated with 5% hexadecane in hexane. Stock solutions of compounds were diluted to 1 mM in a donor buffer (pH 6.5). Lucifer yellow was added to the apical wells of the precoated MultiScreen plate containing compound donor solution. The donor buffer solutions were spiked with each test compound (1 mM). The acceptor-buffer solution was prepared by adding 10 μL DMSO to 990 μL acceptor buffer (pH 7.4) and 250 μL were added to the basolateral (acceptor) wells. The donor plate was carefully inserted into the acceptor plate and incubated at room temperature for 4 h. After the incubation period, 50 μL of samples from the acceptor plate were transferred to a round bottom 96-well plate, together with 30 μL of donor buffer for matrix matching. Theoretical equilibrium samples for each test compound were prepared by adding 150 μL of donor solutions to 250 μL acceptor solutions and left at room temperature. These theoretical equilibrium samples represent complete transfer of the compound into the donor well. For the theoretical equilibrium samples, 80 μL were added to the analysis plate. Lastly, 160 μL of the internal standard carbamazepine (0.1 μM) was added to all acceptor and equilibrium samples. A portion of the sample containing Lucifer yellow was analyzed on a BioRad iMarkTM Microplate Absorbance Reader (BioRad, Hercules, CA, United States; […]. Samples were analysed using reverse phase Gemini NX-C18 column (5 μm, 2.1 mm × 50 mm) with a Shimadzu HPLC coupled with an AB Sciex 3200 Q TRAP MS). […]. Plasma stability. Stock solutions of compounds in DMSO (10 mM) were used to spike pooled human plasma. 90 μL of each sample was transferred in duplicate to 6 different wells of a 96-deep well plate. An aliquot of each sample was immediately quenched with ice cold acetonitrile containing the internal standard carbamazepine (0.1 µM), after which the plate was incubated in a water bath (37°C for […]). Aliquots of samples were removed at 5, 15, 40, 60 and 180 min and quenched with ice cold acetonitrile. After samples of the final time point were precipitated, the supernatant was transferred to a round bottom 96-well plate for analysis by LC-MS/MS using a reverse phase Gemini NX-C18 column (5 μm, 2.1 mm × 50 mm) with a Shimadzu HPLC coupled with an AB Sciex 3200 Q TRAP MS) operated at unit resolution in the multiple reaction monitoring (MRM) mode. The aqueous phase consisted of water with 0.1% formic acid and the organic mobile phase consisted of methanol and acetonitrile (1:1, (v/v)) with 0.1% formic acid. […]. The peak area ratios were used to calculate the amount of parent compound remaining and t1/2 in plasma, using the following equations.

[6] = Metabolic stability in mouse liver microsomes; format: in vitro ADME
Method: (§2) Eq. 4 Predicted t1/2 t1/2=−0.693/λ (4) Where λ is the slope of the Ln % parent remaining vs. time curve. • v. Plasma protein binding. Plasma protein binding was determined in pooled human plasma using an ultracentrifugation method. Stock solutions of test compounds (10 mM) were diluted in phosphate buffer and spiked into plasma in deep well 96-well plates (10 µM). An aliquot of each compound was immediately precipitated with ice cold acetonitrile containing the internal standard carbamazepine (0.1 μM). These served as total concentration samples. After incubation in a water bath at 37°C for 1 h, the samples were transferred to ultracentrifuge tubes in duplicate and centrifuged for 4 h at 37°C and 30,000 g (Optima L-80XP, Beckman). Following centrifugation, the supernatant was transferred to the plate containing the total concentration samples and precipitated with ice cold acetonitrile containing the internal standard. Analyte concentrations of all compounds were determined via LC-MS/MS (reverse phase Gemini NX-C18 column and Shimadzu HPLC coupled with an AB Sciex 3200 Q TRAP MS) as described above. • vi. Metabolic stability. A 5-point metabolic stability assay in human and mouse liver microsomes were performed in duplicate in 96-well plates. […] The cofactor NADPH was added, and the reactions were subsequently stopped at time points 5, 10, 30 and 60 min by removal of an aliquot and quenching with ice cold acetonitrile containing the internal standard. The supernatant of all samples was analysed via LC-MS/MS analysis (reverse phase Gemini NX-C18 column and Shimadzu HPLC and AB Sciex 3200 Q TRAP MS) as described above.

[7] = Metabolic stability in human liver microsomes; format: in vitro ADME
Method: as §2

[8] = In vivo PK, iv and oral, whole blood; parameters: species or system C57BL/6 mice
Method: • i. Animals. […] Food and water were available ad libitum. Mice were acclimatised to the experimental environment for 4-5 days prior to initiating the experiments. • ii. Oral drug administration. AD01 and PhX6 were prepared in 100% Millipore […] prepared in an aqueous suspension of 0.5% HPMC (w/v) containing 0.2% Tween 80 (v/v). The weighed compounds were sonicated and vortexed to ensure all solutions were homogenous. […] The total volume per administration was 200 μL. Blood samples were collected post-dose in lithium heparin microvials via tail bleeding at predetermined intervals at 0.5, 1, 3, 5, 8, 10 and 24 h. Samples were gently vortexed and stored at -80°C until analysis. • iii. Intravenous administration. AD01 and PhX6 were prepared in 100% Millipore […] prepared in an organic vehicle consisting of 10% N,N-dimethylacetamide, 30% polyethylene glycol 400 (PEG), 50% polypropylene glycol (PPG) and 10% ethanol (1:3:5:1, v/v) for intravenous (iv) dosing at 10 mg/kg. The total volume of administration was 80 μL. Blood samples were collected post-dose in lithium heparin microvials via tail bleeding at predetermined intervals at 0.16, 0.5, 1, 3, 5, 8, 10 and 24 h. Samples were gently vortexed and stored at -80°C until analysis. • iv. Sample processing and analysis. […] The mixture was vortexed vigorously for 1 min, and 5 μL of the supernatant were injected onto the analytical column following centrifugation (5590 g for 5 min). A Shimadzu HPLC and reverse phase Gemini NX-C18 column coupled to an AB Sciex 3200 Q TRAP MS was operated at unit resolution in the multiple reaction monitoring (MRM) mode as described above. […] Data analysis. Drug concentration versus time plots for each compound were used to determine maximal drug concentration C max, time T max to reach C max, elimination half-life t 1/2 and the area under the concentration-time curve from time zero to infinity, AUC0-inf. From these values the PK parameters clearance CL, volume of distribution Vd and oral bioavailability BA were determined using the non-compartmental analysis Microsoft Excel Add-In PKSolver ([Zhang et al., 2010]).

[9] = Plasma stability in pooled human plasma; format: in vitro ADME; conditions: 37°C
Method: . […] The aqueous mobile phase was water with 0.1% formic acid and the organic mobile phase was acetonitrile with 0.1% formic acid. The gradient method has a flow rate of 0.8 mL/min, with a total run time of 2.5 min starting at 5% organic and increasing to 95% at 1.4 min, holding for 40 s before returning to 5% to re-equilibrate the column. • ii. Lipophilicity. Stock solutions (10 mM) of compounds were diluted to 100 μM in 96-well deep-well plate containing 300 µL of 1-octanol and 300 µL of phosphate buffer at pH 7.4. The plate was agitated on an orbital shaker at 750 rpm for 2 h. The organic and buffer layers of each well were transferred separately to a new analysis plate. The samples were analysed with the HPLC diode array detection as described for kinetic solubility. Samples from both layers were analysed to determine LogD7.4 values. • iii. Passive permeability. A parallel artificial membrane permeation assay (PAMPA) was used to assess the passive permeability of compounds with a 96-well MultiScreen filter plate ([…] pore size, Millipore). The filter plate was precoated with 5% hexadecane in hexane. Stock solutions of compounds were diluted to 1 mM in a donor buffer (pH 6.5). Lucifer yellow was added to the apical wells of the precoated MultiScreen plate containing compound donor solution. The donor buffer solutions were spiked with each test compound (1 mM). The acceptor-buffer solution was prepared by adding 10 μL DMSO to 990 μL acceptor buffer (pH 7.4) and 250 μL were added to the basolateral (acceptor) wells. The donor plate was carefully inserted into the acceptor plate and incubated at room temperature for 4 h. After the incubation period, 50 μL of samples from the acceptor plate were transferred to a round bottom 96-well plate, together with 30 μL of donor buffer for matrix matching. Theoretical equilibrium samples for each test compound were prepared by adding 150 μL of donor solutions to 250 μL acceptor solutions and left at room temperature. These theoretical equilibrium samples represent complete transfer of the compound into the donor well. For the theoretical equilibrium samples, 80 μL were added to the analysis plate. Lastly, 160 μL of the internal standard carbamazepine (0.1 μM) was added to all acceptor and equilibrium samples. A portion of the sample containing Lucifer yellow was analyzed on a BioRad iMarkTM Microplate Absorbance Reader (BioRad, Hercules, CA, United States; […]. Samples were analysed using reverse phase Gemini NX-C18 column (5 μm, 2.1 mm × 50 mm) with a Shimadzu HPLC coupled with an AB Sciex 3200 Q TRAP MS). […]. Plasma stability. Stock solutions of compounds in DMSO (10 mM) were used to spike pooled human plasma. […]
. Plasma protein binding was determined in pooled human plasma using an ultracentrifugation method. […]

[10] = human, in vivo; cited from earlier work
[11] = parameters: method as in Agency, 2009; conditions: ref Agency, 2009; cited from earlier work
[12] = system: asexual blood stage of P. falciparum; parameters: method as in Coertzen et al., 2018; conditions: ref Coertzen et al., 2018; cited from earlier work
gametocytes = system: gametocytes; parameters: method as in Coertzen et al., 2018; conditions: ref Coertzen et al., 2018; cited from earlier work
[13] = system: Chinese Hamster Ovary (CHO) cell line, CHO-K1; assay: MTT cytotoxicity assay; format: cell-based
Method: Cytotoxicity assays were conducted against the Chinese Hamster Ovary (CHO) cell line, ATCC CCL-61, strain CHO-K1. […] Cells were grown at 37°C in a humidified atmosphere of 5% CO2 and maintained by passage. Cells lines were seeded in 96-well microtitre plates at 10^4 cells/well in cell medium. […] DMSO (100 µL) was added to dissolve the MTT formazan precipitate, and the plates were gently agitated for 2 min to ensure homogeneity. Absorbance was measured at 540 nm using a Turner BioSystems, Inc. ModulusTM II Microplate Reader. The data were analyzed by nonlinear regression analysis using the GraphPad PRISM version 5.00 program to determine the IC50 of each compound.

[14] = parameters: method as in Gibhard et al., 2021; conditions: murine model, ref Gibhard et al., 2021; cited from earlier work
[15] = C57BL/6, mouse, 10 mg/kg, mice, intravenous, whole blood
[16] = C57BL/6, mouse, whole blood, po, 5 mg/kg

## CCN(CC)c1ccc2nc3c4ccccc4/c(=N\c4ccncc4)cc-3oc2c1 [SSJ-183]
[1]
  half-life: 10.3 h
[2]
  IC50: 7.6 nM

## CCN(CC)CCCC(C)Nc1ccnc2cc(Cl)ccc12 (stereo not shown) [CQ, chloroquine, reference compound]
[3]; NF54, 72 h, read-out: Plasmodium falciparum IC50 NF54
  IC50: 9.9 ± 0.4 nM
[4]; DD2, 72 h
  IC50: 142 ± 16.8 nM

## CCNC(=S)NN=C(c1ccccn1)c1ccccn1 [DpNEt]
[5]; PBS pH 2, read-out: Predicted solubility pH 2
  solubility at 2 h: > 150 µM
[5]; PBS pH 6.5, read-out: Predicted solubility pH 6.5
  solubility at 2 h: > 150 µM
[5]; PBS pH 7.4, read-out: Predicted solubility pH 7.4
  solubility at 2 h: > 150 µM
[6]
  CLint scaled: 22.3 mL/min/kg
[7]
  CLint scaled: 4 mL/min/kg
[8]; [15]
  Vd: 1 ± 0.16 L/kg
  clearance: 10.2 ± 0.93 mL/min/kg
[8]; C57BL/6, mouse, whole blood, iv, 10 mg/kg, mice, intravenous, whole blood, read-out: t1/2 (converted)
  half-life: 1.2 h
[8]; [16]
  Cmax: 6.32 ± 1.15 µM
  Tmax: 0.7 ± 0.12 h
[8]; mice, intravenous, whole blood
  AUC0-∞: 1795 ± 198 µmol·min/L
  t1/2: 1.12 ± 0.13 h
[8]; mice, oral bioavailability
  BA: 8% and 8 ± 2%
[8]; mice, oral gavage: AD01 4.6, PhX6 4.5, DpNEt 5 mg/kg
  AUC0-∞: 550 ± 148 µmol·min/L
[9]
  half-life: > 2.5 h

## CN(C)c1ccc2nc3ccc(=[N+](C)C)cc-3sc2c1 [MB, methylene blue]
[10]
  Bioavailability: 72.3± 23.9%
  Mean terminal half-life: 5.25 h
[11]
  Protein bound: 94%
[12]
  Interaction with artemisone against the asexual blood stage: only an additive effect
gametocytes
  Interaction with artemisone, gametocytocidal activity: synergistically enhanced

## C[C@H]1[C@H](N2CCS(=O)(=O)CC2)O[C@@H]2O[C@@]3(C)CC[C@H]4[C@H](C)CC[C@@H]1[C@@]24OO3 [AMS, artemisone]
[3]; CQ-sensitive NF54, pLDH 72 h, n = 3, read-out: Plasmodium falciparum IC50 NF54
  IC50: 4.5 ± 2.42 nM
[4]; IC50 (resistant strain)/IC50 (sensitive strain), DD2/NF54
  Resistance index: 1.2
[4]; CQ-resistant DD2, pLDH 72 h, n = 3
  IC50: 5.48 ± 2.03 nM
[13]; Cricetulus griseus, CHO cells, MTT
  IC50: > 249000 nM
[13]; cytotoxicity IC50/activity IC50, CHO/DD2
  Selectivity index CHO/resistant Pf strain: >1,000
[13]; cytotoxicity IC50/activity IC50, CHO/NF54
  Selectivity index CHO/sensitive Pf strain: >1,000

## C[C@H]1[C@H](N2CCSCC2)O[C@@H]2O[C@@]3(C)CC[C@H]4[C@H](C)CC[C@@H]1[C@@]24OO3 [artemiside]
[14]
  Cmax relative to that after oral administration of artemisone: 2.6 fold

From publication PMC10800708, “Efficacies and ADME properties of redox active methylene blue and phenoxazine analogues for use in new antimalarial triple drug combinations with amino-artemisinins” (Frontiers in Pharmacology, 2024)
